Test results from patent US20110191867A1.

How the values were obtained:
[1] = system: serum antibodies of test subjects
[2] = system: serum antibodies of test subjects; settings: serum of 8 persons

Substance	comparison of the cyclic and linear peptide, reactivity with sera [1]	reaction with serum of test subject [1]	reactivity with sera of test subjects [1]	immune responses of serum antibodies against the peptides [2]
Biotin-aminocaproyl-RPKVRDQ [Peptide 3C]	more reactive with low signals with other subjects	higher reaction	Strong responses were observed from the serum of test subjects S5B	–
Biotin-aminocaproyl-SRPRVRNIP [Peptide 2B]	–	high reaction	much weaker reactions	especially effective in binding with certain antibodies
